Laboratory results: patent US10188634B2, “3-(3H-imidazo[4,5-C]pyridin-2-yl)-1 H-pyrazolo[4,3-B]pyridines and therapeutic uses thereof” (Samumed, LLC, priority 2015, dated 2019)

Columns and labels:
Format in all cases: cell-based
IL-6 in THP-1 cells = test: Inhibition of IL-6 in LPS-stimulated THP-1 human monocyte cells (HTRF); details: IL-6 HTRF; for EC50: 500 ng/mL LPS, 22 hours; for inhibition at 10 µM: LPS, read-out: percent inhibition in brackets (given for EC50 >10 μM)
In short: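 THP-1 cells, serum-reduced (1% FBS) for 24 h, were exposed to compound (1:3, 10-point series from 10 μM; 0.1% DMSO) for 2 h, then 500 ng/mL LPS for 22 h at 37° C. Secreted IL-6 measured by HTRF (665/620 ratio), normalised to DMSO; EC50 by four-parameter fit, else % inhibition at 10 μM.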

[1] = test system: LL29 cells (primary human fibroblasts derived from IPF patients) treated with TGF-β1, α-smooth muscle actin; test: Inhibition of the fibrotic process: αSMA staining in TGF-β1 treated primary human fibroblasts from IPF patients (LL29 cells); details: Fibroblast, 96 h; for EC50: LL29 cells treated with TGF-β1 (20 ng/mL), 4 days; for inhibition at 10 µM: LL29 cells treated with TGF-β1, 4 days, read-out: percent inhibition in brackets (given for EC50 >10 μM)
SW480 colon cancer cells = test: Cell viability assay (CellTiter-Blue) in SW480 colon cancer cells; details: Homo sapiens, 96 h; for inhibition at 10 µM: four days, CellTiter-Blue, read-out: percent inhibition at 10 μM (given for EC50 of >10 μM); for EC50: four days incubation, CellTiter-Blue cell viability
In short: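 About 2×10^3 SW480 colon cancer cells per well were exposed to compound (8-point 1:3 dilutions, 10 μM to 0.004 μM) for four days at 37 °C. Viability was read by CellTiter-Blue resazurin reduction (~3 h, Ex 560/Em 590). EC50 from nonlinear regression; above 10 μM, % inhibition at 10 μM is reported.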

Row | Structure (SMILES) | EC50 (IL-6 in THP-1 cells) [µM] | EC50 (SW480 colon cancer cells) [µM] | inhibition at 10 µM (IL-6 in THP-1 cells) [%] | EC50 [1] [µM] | inhibition at 10 µM (SW480 colon cancer cells) [%] | inhibition at 10 µM [1] [%]
1 | Fc1cccc(-c2cncc3[nH]c(-c4n[nH]c5ccc(C6=CCNCC6)nc45)nc23)c1 [Compound 478, 3-(7-(3-Fluorophenyl)-3H-imidazo[4,5-c]pyridin-2-yl)-5-(1,2,3,6-tetrahydropyridin-4-yl)-1H-pyrazolo[4,3-b]pyridine] | > 10 | > 10 | 18.6 | 4.99 | 0 | –
2 | Fc1cccc(-c2cncc3[nH]c(-c4n[nH]c5ccc(-c6cn[nH]c6)nc45)nc23)c1 [Compound 479, 3-(7-(3-Fluorophenyl)-3H-imidazo[4,5-c]pyridin-2-yl)-5-(1H-pyrazol-4-yl)-1H-pyrazolo[4,3-b]pyridine] | > 10 | > 10 | 15.7 | > 10 | 5.5 | 36.2
3 | Cn1cc(-c2ccc3[nH]nc(-c4nc5c(-c6cccc(F)c6)cncc5[nH]4)c3n2)cn1 [Compound 480, 3-(7-(3-Fluorophenyl)-3H-imidazo[4,5-c]pyridin-2-yl)-5-(1-methyl-1H-pyrazol-4-yl)-1H-pyrazolo[4,3-b]pyridine] | > 10 | > 10 | 9.7 | > 10 | 1.7 | 4.2
4 | Cc1ncc(-c2ccc3[nH]nc(-c4nc5c(-c6cccc(F)c6)cncc5[nH]4)c3n2)n1C [Compound 481, 5-(1,2-Dimethyl-1H-imidazol-5-yl)-3-(7-(3-fluorophenyl)-3H-imidazo[4,5-c]pyridin-2-yl)-1H-pyrazolo[4,3-b]pyridine] | > 10 | 2.3 | 48.3 | > 10 | – | 4.5
5 | NC1CN(c2cncc(-c3ccc4[nH]nc(-c5nc6c(-c7cccc(F)c7)cncc6[nH]5)c4n3)n2)C1 [Compound 482, 1-(6-(3-(7-(3-Fluorophenyl)-3H-imidazo[4,5-c]pyridin-2-yl)-1H-pyrazolo[4,3-b]pyridin-5-yl)pyrazin-2-yl)azetidin-3-amine] | > 10 | > 10 | 40.8 | > 10 | 3.8 | 16.7
6 | Fc1cccc(-c2cncc3[nH]c(-c4n[nH]c5ccc(-c6cncc(OC7CCNCC7)c6)nc45)nc23)c1 [Compound 484, 3-(7-(3-Fluorophenyl)-3H-imidazo[4,5-c]pyridin-2-yl)-5-(5-(piperidin-4-yloxy)pyridin-3-yl)-1H-pyrazolo[4,3-b]pyridine] | > 10 | > 10 | 11.3 | 1.42 | 11.7 | –
7 | Oc1cncc(-c2ccc3[nH]nc(-c4nc5c(-c6cccc(F)c6)cncc5[nH]4)c3n2)c1 [Compound 489, 5-(3-(7-(3-Fluorophenyl)-3H-imidazo[4,5-c]pyridin-2-yl)-1H-pyrazolo[4,3-b]pyridin-5-yl)pyridin-3-ol] | > 10 | > 10 | 43.3 | 2.31 | 3.7 | –
8 | Fc1cccc(-c2cncc3[nH]c(-c4n[nH]c5ccc(-c6cnccn6)nc45)nc23)c1 [Compound 492, 3-(7-(3-Fluorophenyl)-3H-imidazo[4,5-c]pyridin-2-yl)-5-(pyrazin-2-yl)-1H-pyrazolo[4,3-b]pyridine] | > 10 | > 10 | 24.5 | > 10 | 7.5 | 0
9 | c1cncc(-c2cncc3[nH]c(-c4n[nH]c5ccc(-c6cncc(OC7CCCCC7)c6)nc45)nc23)c1 [Compound 531, 5-(5-(Cyclohexyloxy)pyridin-3-yl)-3-(7-(pyridin-3-yl)-3H-imidazo[4,5-c]pyridin-2-yl)-1H-pyrazolo[4,3-b]pyridine] | 0.371 | > 10 | – | 3.2 | 15.5 | –
10 | Cc1ccc(-c2cncc3[nH]c(-c4n[nH]c5ccc(C6=CCNCC6)nc45)nc23)s1 [Compound 686, 3-(7-(5-Methylthiophen-2-yl)-3H-imidazo[4,5-c]pyridin-2-yl)-5-(1,2,3,6-tetrahydropyridin-4-yl)-1H-pyrazolo[4,3-b]pyridine] | > 10 | 6.11 | 23.8 | 4.91 | – | –

The next lines start with results.

Row | EC50 (IL-6 in THP-1 cells) [µM] | EC50 (SW480 colon cancer cells) [µM] | Structure (SMILES) | inhibition at 10 µM (IL-6 in THP-1 cells) [%] | EC50 [1] [µM] | inhibition at 10 µM (SW480 colon cancer cells) [%] | inhibition at 10 µM [1] [%]
11 | 0.414 | > 10 | Oc1cncc(-c2ccc3[nH]nc(-c4nc5c(-c6cccnc6)cncc5[nH]4)c3n2)c1 [Compound 537, 5-(3-(7-(Pyridin-3-yl)-3H-imidazo[4,5-c]pyridin-2-yl)-1H-pyrazolo[4,3-b]pyridin-5-yl)pyridin-3-ol] | – | > 10 | 7.6 | 49.8
12 | > 10 | > 10 | c1cc(-c2cncc3[nH]c(-c4n[nH]c5ccc(-c6cncc(OC7CCNCC7)c6)nc45)nc23)ccn1 [Compound 548, 5-(5-(Piperidin-4-yloxy)pyridin-3-yl)-3-(7-(pyridin-4-yl)-3H-imidazo[4,5-c]pyridin-2-yl)-1H-pyrazolo[4,3-b]pyridine] | 22.6 | 2.47 | 10.3 | –
13 | > 10 | > 10 | c1ccc(COc2cncc(-c3ccc4[nH]nc(-c5nc6c(-c7ccncc7)cncc6[nH]5)c4n3)c2)cc1 [Compound 554, 5-(5-(Benzyloxy)pyridin-3-yl)-3-(7-(pyridin-4-yl)-3H-imidazo[4,5-c]pyridin-2-yl)-1H-pyrazolo[4,3-b]pyridine] | 50.3 | 1.03 | 0 | –
14 | > 10 | > 10 | c1cc(-c2cncc3[nH]c(-c4n[nH]c5ccc(-c6cnccn6)nc45)nc23)ccn1 [Compound 556, 5-(Pyrazin-2-yl)-3-(7-(pyridin-4-yl)-3H-imidazo[4,5-c]pyridin-2-yl)-1H-pyrazolo[4,3-b]pyridine] | 0 | 0.014 | 13.7 | –
15 | > 10 | > 10 | Cn1cc(-c2ccc3[nH]nc(-c4nc5c(-c6cccs6)cncc5[nH]4)c3n2)cn1 [Compound 656, 5-(1-Methyl-1H-pyrazol-4-yl)-3-(7-(thiophen-2-yl)-3H-imidazo[4,5-c]pyridin-2-yl)-1H-pyrazolo[4,3-b]pyridine] | 14.8 | > 10 | 1.3 | 46.4
16 | > 10 | > 10 | CN(C)CCOc1cncc(-c2ccc3[nH]nc(-c4nc5c(-c6cccs6)cncc5[nH]4)c3n2)c1 [Compound 663, N,N-Dimethyl-2-((5-(3-(7-(thiophen-2-yl)-3H-imidazo[4,5-c]pyridin-2-yl)-1H-pyrazolo[4,3-b]pyridin-5-yl)pyridin-3-yl)oxy)ethan-1-amine] | 43.8 | 1.22 | 15.5 | –
17 | > 10 | > 10 | Cn1cc(-c2ccc3[nH]nc(-c4nc5c(-c6cc(F)cc(CNS(C)(=O)=O)c6)cncc5[nH]4)c3n2)cn1 [Compound 720, N-(3-Fluoro-5-(2-(5-(1-methyl-1H-pyrazol-4-yl)-1H-pyrazolo[4,3-b]pyridin-3-yl)-3H-imidazo[4,5-c]pyridin-7-yl)benzyl)methanesulfonamide] | 44.7 | > 10 | 0 | 3.8
18 | > 10 | > 10 | CS(=O)(=O)NCc1cc(F)cc(-c2cncc3[nH]c(-c4n[nH]c5ccc(-c6cncc(NC(=O)CC7CCNCC7)c6)nc45)nc23)c1 [Compound 725, N-(5-(3-(7-(3-Fluoro-5-(methylsulfonamidomethyl)phenyl)-3H-imidazo[4,5-c]pyridin-2-yl)-1H-pyrazolo[4,3-b]pyridin-5-yl)pyridin-3-yl)-2-(piperidin-4-yl)acetamide] | 27.1 | > 10 | 14.6 | 40.9
19 | 8.86 | > 10 | CN(C)CCNc1cc(F)cc(-c2cncc3[nH]c(-c4n[nH]c5ccc(-c6cncc(OCCN7CCCC7)c6)nc45)nc23)c1 [Compound 742, N^1-(3-Fluoro-5-(2-(5-(5-(2-(pyrrolidin-1-yl)ethoxy)pyridin-3-yl)-1H-pyrazolo[4,3-b]pyridin-3-yl)-3H-imidazo[4,5-c]pyridin-7-yl)phenyl)-N^2,N^2-dimethylethane-1,2-diamine] | – | > 10 | 8.2 | 0
20 | > 10 | > 10 | CN(C)CC(=O)Nc1cncc(-c2ccc3[nH]nc(-c4nc5c(-c6cccc(F)c6)cncc5[nH]4)c3n2)c1 [Compound 925, 2-(Dimethylamino)-N-(5-(3-(7-(3-fluorophenyl)-3H-imidazo[4,5-c]pyridin-2-yl)-1H-pyrazolo[4,3-b]pyridin-5-yl)pyridin-3-yl)acetamide] | 20.1 | > 10 | 16.1 | 8.3
